{
  "source": "patent US7309713B2",
  "about": "“Use of the non-opiate analgesic drug flupirtine for the treatment of overactive bladder and associated diseases including urge incontinence, urinary flow problems as a result of prostate hyperplasia and irritable bowel syndrome” (priority 2005, dated 2007)",
  "key": {"[1]": {"system": "analgesic effect in rodents", "conditions": "p.o.; cited from earlier work"}, "[2]": {"system": "mean arterial blood pressure", "assay": "mean arterial blood pressure recorded in the urethane anaesthetised rats of the bladder model", "procedure": "The body temperature was maintained at 37° C. by means of an heated small operating table and 2 red light heating lamps. The left carotid artery was prepared and a catheter for continuous blood pressure measurement was inserted and connected to a Statham pressure transducer (Model P23 Db) and connected with a computer-controlled physiological recorder (PMS PR 800, Mumed Systems Ltd London, GB).\nFor intraduodenal drug administration a polyethylene catheter was inserted into the upper part of the duodenum, about 5 cm downwards from the pylorus and fixed with a purse-string suture. Bilateral ureters were ligated proximally to the bladder to prevent the bladder filling with urine. Urine of the kidneys was drained onto cotton swabs within the abdomen. The urinary bladder was catheterised via the urethra by use of PE 50 polyethylene tubing filled with physiological saline and secured in place by a ligature at the lower part of the urethra. Using a “T”-connector, the bladder catheter was connected to a Statham pressure transducer (Model P23 Db) connected with the physiological recorder (PMS PR 800) to measure intravesicular pressure and to a Infusion pump (TSE, FRG). Continuous recordings of intravesicular pressure and arterial blood pressure were captured onto a 4 channel Linearcorder WR3310 (Western Graphtec, Inc., USA). The experiment was started infusing (0.05 ml/min) the bladder with warmed saline (37-38° C.) to evoke rhythmic bladder contractions by means an infusion pump up to a maximal volume of 1.0 ml. The infusion is stopped after reaching the final volume or with the start of rhythmic bladder contractions."}, "[3]": {"system": "Randall-Selitto test in rats", "conditions": "p.o.; cited from earlier work"}, "[4]": {"system": "volume-induced rhythmic urinary bladder contractions", "assay": "volume-induced rhythmic urinary bladder contractions in urethane anaesthetised rats (rat model of overactive bladder)", "format": "in vivo, Sprague Dawley rat", "conditions": "for presence/absence of bladder contractions (block grade), individual animal: 55 min period, Table 3; for duration of block, individual animal / number of episodes of block per animal / decrease in frequency, individual animal: individual animals; for mean voiding frequency decreased by: decrease", "text": "In the search for new drugs compounds are of interest which affect the central nervous system circuits involved in micturation as well as the peripheral nerves resulting in a decrease in the frequency of the voiding reflex without any effect on bladder contractility. […] The method utilises spontaneous, volume-induced contractions of the urinary bladder in anaesthetised rats and was developed and first described by Dray (J. Pharmacol. Meth. 13:157-165, 1985) to assess the central activity of substances with opioid properties on bladder function. As this model clearly mimics the interplay between smooth muscle function and neuronal control thereof, this model can be also used to predict drug effects in a different disease, i.e. irritable bowl syndrome (IBS).\nAim of the study: To characterise the effects of the analgesic flupirtine maleate on the bladder function we used the model volume-induced contractions of urinary bladder in urethane anaesthetised rats. […] The compounds at the dose range 0.1-10 mg/kg were intraduodenally administered to anaesthetised rats. The intraduodenal route was chosen to mimic the oral route and to avoid the use of solvents necessary for intravenous administration.\n• Species: Sprague Dawley rat • Sex: Female • Body weight: 200-270 g • Breeder: Charles River, Sulzfeld • Food/Tap water: pellets, ssniff M/R15, ad libitum, Spezialdiäten GmbH, Soest/Wesffalen, FRG • Conditions in animal housing: Rats were kept conventionally in groups of 6 in macrolon cages No. 4. • Room temperature: 20-24° C. • Relative humidity: 40-70%, deviations from the maximum range caused during cleaning procedure are possible • Light/Dark rhythm: 12/12 h light/dark cycle, light on at 6:00 a.m.\nThe food was withdrawn 16 hours before intraduodenal drug administration. Tap water was available ad libitum.\nFlupirtine maleate or oxybutynin hydrochloride were suspended in hydroxyethylcellulose (0.5%) in demineralised water. The substances were ground in a mortar with pistil. The suspensions were placed on a magnetic stirrer before and during dosing procedures. The substances were freshly prepared in the morning and applied intraduodenally in a volume of 0.4 ml/100 g body weight. Control rats received hydroxyethylcellulose (0.5%) i.d.\nThe filling material, consisting of small globules, was ground in a mortar with pistil. Thereafter the grounded material was suspended in hydroxyethylcellulose (0.5%) in demineralised water. The suspensions were placed on a magnetic stirrer before and during dosing procedures for 10 minutes. The suspensions were freshly prepared in the morning and applied intraduodenally in a volume of 0.4 ml/100 g body weight to rats. Control rats received the same amount of hydroxyethylcellulose (0.5%) i.d.\nThe continuous registration lasted 1 hr. […] The frequency was evaluated for 10 min before (baseline) and within the observation period in intervals of 10 minutes starting 5, 20, 35 and 50 min after drug administration. For intraduodenal dosing, drugs were administered via a duodenal polyethylene tube to animals in aqueous suspension of 0.5% hydroxyethylcellulose."}, "Haffner test in mice": {"system": "Haffner test in mice", "conditions": "p.o.; cited from earlier work"}, "[5]": {"system": "isolated organ strips of rat bladder", "assay": "isolated organ strips of rat bladder contracted with potassium chloride (40 mM)", "conditions": "read-out: IC50, concentration needed to counteract the contractile response of potassium chloride by 50%, isolated organ bath", "method": "Flupirtine was also tested in an in vitro model of detrusor muscle activity. In this model, isolated organ strips of rat bladder was introduced in an isolated organ bath system. […] In this model, flupirtine did show some activity, but the concentration needed to relax the bladder strip was rather high. […] Direct effects on the bladder wall may be of limited relevance for the pharmacological effect. Indeed, this is in line with the observation that the contraction force of the detrusor in above mentioned in vivo models was not influenced at doses which clearly had pharmacological effects on micturation frequency."}, "[6]": {"system": "bladder instability after partial ligation of the proximal urethra", "assay": "bladder hyperactivity/detrusor instability induced by chronic partial outflow obstruction", "format": "in vivo, rats", "conditions": "cystometry, 6 weeks after partial ligation", "text": "A different model of bladder hyperactivity/detrusor instability induced by chronic partial outflow obstruction is also useful to evaluate the efficacy of a compound. Partial obstruction is achieved using partial ligation of the proximal urethra in rats. […] This can be recorded using cystometry. This model more closely resembles the situation during prostate hyperplasia and other diseases resulting in outflow obstruction. Flupirtine is also active in this model."}, "[7]": {"conditions": "0.1 mg/kg i.d. single dose, group mean"}, "[8]": {"conditions": "1.0 mg/kg i.d. single dose, group mean"}, "[9]": {"conditions": "3.0 mg/kg i.d. single dose, group mean"}, "[10]": {"conditions": "10 mg/kg i.d. single dose, group mean"}, "[11]": {"conditions": "0.1 mg/kg i.d. single dose, group mean, listed as Flupirtine maleate"}},
  "note": "Values joined by “and” are separate entries in the source; they are usually repeats but may differ in a detail not shown here. Equal values may be shown once. “Also recorded” adds a separate entry of the source. Where a name gives a salt, the structure may show the parent alone.",
  "data": [
    {"compound": "CCOC(=O)Nc1ccc(NCc2ccc(F)cc2)nc1N", "note": "[flupirtine maleate, [(2-Amino-6-(4-fluorophenyl)-methyl-amino-3-pyridinyl)-carbamicacid ethylester maleate]]", "values": [
      {"measurement": "doses of first analgesic efficacy", "setting": "[1]", "value": "25-50 mg/kg p.o."},
      {"measurement": "mean BP, change in percent from base value (Δ %)", "setting": "[2]; [7]", "value": "−4.7", "unit": "%"},
      {"measurement": "mean BP, change in percent from base value (Δ %)", "setting": "[2]; [8]", "value": "−6.9", "unit": "%"},
      {"measurement": "mean BP, change in percent from base value (Δ %)", "setting": "[2]; [9]", "value": "−12", "unit": "%"},
      {"measurement": "mean BP Post (30-60 min), mean", "setting": "[2]; [10]", "value": "79.3-83.3 mm Hg"},
      {"measurement": "mean arterial blood pressure decreased by", "setting": "[2]; 10 mg/kg i.d., decrease", "value": 11, "unit": "%"},
      {"measurement": "ED50, Randall-Selitto test", "setting": "[3]", "value": 39, "unit": "mg/kg p.o."},
      {"measurement": "block X/n (animals with blockade of bladder contraction)", "setting": "[4]; 0.1 mg/kg i.d. single dose", "value": "2/3"},
      {"measurement": "block, blockade duration (group, min-max)", "setting": "[4]; 0.1 mg/kg i.d. single dose", "value": "4 to 8", "unit": "min"},
      {"measurement": "amplitude, change in percent from base value (Δ %)", "setting": "[4]; [7]", "value": "−9.0", "unit": "%"},
      {"measurement": "frequency, change in percent from base value (Δ %)", "setting": "[4]; [7]", "value": "+3.4%"},
      {"measurement": "amplitude, change in percent from base value (Δ %)", "setting": "[4]; [11]", "value": "No effect"},
      {"measurement": "frequency, change in percent from base value (Δ %)", "setting": "[4]; [11]", "value": "No effect"},
      {"measurement": "block X/n (animals with blockade of bladder contraction)", "setting": "[4]; 0.1 mg/kg i.d. single dose, listed as Flupirtine maleate", "value": "2 out of 3"},
      {"measurement": "presence/absence of bladder contractions (block grade), individual animal", "setting": "[4]; 0.1 mg/kg i.d.", "value": "no block; also recorded: (+) (+ or (+) = contractions abolished during 5-10 min time period)"},
      {"measurement": "duration of block, individual animal", "setting": "[4]; 0.1 mg/kg i.d.", "value": "≤ 4 min and ≤ 8 min"},
      {"measurement": "number of episodes of block per animal", "setting": "[4]; 0.1 mg/kg i.d.", "value": 1},
      {"measurement": "duration of block, individual animal", "setting": "[4]; 0.1 mg/kg i.d., listed as Flupirtine maleate", "value": "4 min and 8 min"},
      {"measurement": "block X/n (animals with blockade of bladder contraction)", "setting": "[4]; 1.0 mg/kg i.d. single dose", "value": "2 out of 3 and 2/3"},
      {"measurement": "block, blockade duration (group, min-max)", "setting": "[4]; 1.0 mg/kg i.d. single dose", "value": "4 to 18", "unit": "min"},
      {"measurement": "frequency Post (20-60 min), mean", "setting": "[4]; [8]", "value": "7.0-7.0 n/10 min"},
      {"measurement": "frequency, change in percent from base value (Δ %)", "setting": "[4]; [8]", "value": "−8.7", "unit": "%"},
      {"measurement": "presence/absence of bladder contractions (block grade), individual animal", "setting": "[4]; 1.0 mg/kg i.d.", "value": "no block; also recorded: + (+ or (+) = contractions abolished during 5-10 min time period); also recorded: (+) (+ or (+) = contractions abolished during 5-10 min time period)"},
      {"measurement": "decrease in frequency, individual animal", "setting": "[4]; 1.0 mg/kg i.d.", "value": "17% and 23% and without influence and frequency by 17% and frequency by 23%"},
      {"measurement": "duration of block, individual animal", "setting": "[4]; 1.0 mg/kg i.d.", "value": "4 to 5 min and 16 min"},
      {"measurement": "number of episodes of block per animal", "setting": "[4]; 1.0 mg/kg i.d.", "value": "1 and 2"},
      {"measurement": "block X/n (animals with blockade of bladder contraction)", "setting": "[4]; 3.0 mg/kg i.d. single dose", "value": "all three and 3/3"},
      {"measurement": "block, blockade duration (group, min-max)", "setting": "[4]; 3.0 mg/kg i.d. single dose", "value": "5 to 14", "unit": "min"},
      {"measurement": "amplitude Post (30-60 min), mean", "setting": "[4]; [9]", "value": "26.3-26.3 mm Hg"},
      {"measurement": "frequency, change in percent from base value (Δ %)", "setting": "[4]; [9]", "value": "−40", "unit": "%"},
      {"measurement": "presence/absence of bladder contractions (block grade), individual animal", "setting": "[4]; 3.0 mg/kg i.d.", "value": "++ (++ = contractions abolished during 10-30 min time period); also recorded: (+) (+ or (+) = contractions abolished during 5-10 min time period); also recorded: + (+ or (+) = contractions abolished during 5-10 min time period)"},
      {"measurement": "mean voiding frequency decreased by", "setting": "[4]; 3 mg/kg i.d.", "value": 40, "unit": "%"},
      {"measurement": "decrease in frequency, individual animal", "setting": "[4]; 3.0 mg/kg i.d.", "value": "frequency by 29%; also recorded: by 50%; also recorded: frequency by 41%"},
      {"measurement": "duration of block, individual animal", "setting": "[4]; 3.0 mg/kg i.d.", "value": "14 min and block, 6 min block, starting and ≤ 5 min and 8 min"},
      {"measurement": "animals with voiding contractions abolished over the whole observation period", "setting": "[4]; 10 mg/kg i.d.", "value": "1/3"},
      {"measurement": "block X/n (animals with blockade of bladder contraction)", "setting": "[4]; 10 mg/kg i.d. single dose", "value": "3/3"},
      {"measurement": "block, blockade duration (group, min-max)", "setting": "[4]; 10 mg/kg i.d. single dose", "value": "26 to 56", "unit": "min"},
      {"measurement": "amplitude, change in percent from base value (Δ %)", "setting": "[4]; [10]", "value": "−26", "unit": "%"},
      {"measurement": "frequency, change in percent from base value (Δ %)", "setting": "[4]; [10]", "value": "−57", "unit": "%"},
      {"measurement": "presence/absence of bladder contractions (block grade), individual animal", "setting": "[4]; 10 mg/kg i.d.", "value": "++ (++ = contractions abolished during 10-30 min time period); also recorded: +++ (+++ = contractions abolished during 30-60 min time period)"},
      {"measurement": "mean voiding frequency decreased by", "setting": "[4]; 10 mg/kg i.d.", "value": 57, "unit": "%"},
      {"measurement": "decrease in frequency, individual animal", "setting": "[4]; 10 mg/kg i.d.", "value": "frequency by 68%; also recorded: in frequency by 87%; also recorded: block decrease in frequency by 57%"},
      {"measurement": "duration of block, individual animal", "setting": "[4]; 10 mg/kg i.d.", "value": "26 min and 29 min and 55 min and 39 min"},
      {"measurement": "mean pressure peaks of the amplitude diminished/reduced by", "setting": "[4]; 10 mg/kg i.d., reduction", "value": 26, "unit": "%"},
      {"measurement": "doses with therapeutic effect in the model volume-induced contractions in urinary bladder", "setting": "[4]; rat, in vivo", "value": "1-3 mg/kg p.o."},
      {"measurement": "ED50, analgesic effect in the Haffner test", "setting": "Haffner test in mice", "value": 28, "unit": "mg/kg p.o."}
    ]},
    {"compound": "CCOC(=O)Nc1ccc(NCc2ccc(F)cc2)nc1N", "note": "[flupirtine, 2-amino-3-carbethoxyamino-6-(4-fluorobenzylamino)-pyridine]", "values": [
      {"measurement": "effect on peripheral blood pressure", "setting": "[2]; summary over the doses tested", "value": "not cause any effect"},
      {"measurement": "fold higher activity in the bladder model than in the analgesia tests", "setting": "[4]; compared with analgesic ED50 values", "value": "3-10 fold"},
      {"measurement": "intraduodenal dose at which the first effects became visible", "setting": "[4]; intraduodenal", "value": 3, "unit": "mg/kg"},
      {"measurement": "IC50", "setting": "[5]", "value": 7.5, "unit": "µM"},
      {"measurement": "activity in the chronic partial outflow obstruction model", "setting": "[6]", "value": "active"}
    ]}
  ]
}
